According to ChEMBL document CHEMBL1121457, “Long-acting opiate agonists and antagonists: 14-hydroxydihydromorphinone hydrazones” (1980):

Tests used:
Mus musculus = species on record: Mus musculus; experiment: Percent analgesia of compound was measured in mice by using tail-flick assay; format: functional
Rattus norvegicus [1] = species on record: Rattus norvegicus; experiment: Percent decrease in activity for the inhibition of [3H]naltrexone in rat brain homogenates in the presence of standard at dose of 4 nM compared with that of control (4930+/-143 cpm).; format: functional
Rattus norvegicus [2] = species on record: Rattus norvegicus; experiment: Percent decrease in activity for the inhibition of [3H]-Naltrexone in rat brain homogenates in the presence of standard at dose of 10 nM compared with that of control (4930+/-143 cpm).; format: functional
Rattus norvegicus [3] = species on record: Rattus norvegicus; experiment: Percent decrease in activity for the inhibition of [3H]naltrexone in rat brain homogenates in the presence of NaCl at dose of 4 nM compared with that of control (6070+/-75 cpm).; format: functional
Rattus norvegicus [4] = species on record: Rattus norvegicus; experiment: Percent decrease in activity for the inhibition of [3H]naltrexone in rat brain homogenates in the presence of NaCl and MnCl2 at dose of 10 nM compared with that of control (5840+/-72 cpm).; format: functional
Rattus norvegicus [5] = species on record: Rattus norvegicus; experiment: The compound was tested in vitro for the inhibition of [3H]naltrexone in rat brain homogenates in the presence of NaCl and MnCl2 at 10 nM dose.; format: functional, organism-based
Rattus norvegicus [6] = species on record: Rattus norvegicus; experiment: The compound was tested in vitro for the inhibition of [3H]naltrexone in rat brain homogenates in the presence of standard at 4 nM dose.; format: functional
Rattus norvegicus [7] = species on record: Rattus norvegicus; experiment: The compound was tested in vitro for the inhibition of [3H]naltrexone in rat brain homogenates in the presence of standard at 10 nM dose.; format: functional
Rattus norvegicus [8] = species on record: Rattus norvegicus; experiment: The compound was tested in vitro for the inhibition of [3H]-Naltrexone in rat brain homogenates in the presence of NaCl at 10 nM dose.; format: functional
Rattus norvegicus [9] = species on record: Rattus norvegicus; experiment: Percent decrease in activity for the inhibition of [3H]naltrexone in rat brain homogenates in the presence of MnCl2 at dose of 4 nM compared with that of control (4080+/-138 cpm).; format: functional
Rattus norvegicus [10] = species on record: Rattus norvegicus; experiment: Percent decrease in activity for the inhibition of [3H]naltrexone in rat brain homogenates in the presence of NaCl and MnCl2 at dose of 4 nM compared with that of control (5840+/-72 cpm).; format: functional
Rattus norvegicus [11] = species on record: Rattus norvegicus; experiment: Percent decrease in activity for the inhibition of [3H]naltrexone in rat brain homogenates in the presence of NaCl at dose of 10 nM compared with that of control (6070+/-75 cpm).; format: functional
Rattus norvegicus [12] = species on record: Rattus norvegicus; experiment: Percent decrease in activity for the inhibition of [3H]naltrexone in rat brain homogenates in the presence of MnCl2 at dose of 10 nM compared with that of control (4080+/-138 cpm).; format: functional
Rattus norvegicus [13] = species on record: Rattus norvegicus; experiment: The compound was tested in vitro for the inhibition of [3H]-Naltrexone in rat brain homogenates in the presence of MnCl2 at 10 nM dose.; format: functional
Rattus norvegicus [14] = species on record: Rattus norvegicus; experiment: The compound was tested in vitro for the inhibition of [3H]naltrexone in rat brain homogenates in the presence of NaCl and MnCl2 at 4 nM dose.; format: functional, organism-based
Rattus norvegicus [15] = species on record: Rattus norvegicus; experiment: The compound was tested in vitro for the inhibition of [3H]-Naltrexone in rat brain homogenates in the presence of MnCl2 at 4 nM dose.; format: functional
Rattus norvegicus [16] = species on record: Rattus norvegicus; experiment: The compound was tested in vitro for the inhibition of [3H]naltrexone in rat brain homogenates in the presence of MnCl2 at 10 nM dose

| Compound | Analgesia (Mus musculus) [%] | Decrease (Rattus norvegicus [1]) [%] | Decrease (Rattus norvegicus [2]) [%] | Decrease (Rattus norvegicus [3]) [%] | Decrease (Rattus norvegicus [4]) [%] | Binding activity (Rattus norvegicus [5]) [c.p.m.] | Binding activity (Rattus norvegicus [6]) [c.p.m.] | Binding activity (Rattus norvegicus [7]) [c.p.m.] | Binding activity (Rattus norvegicus [8]) [c.p.m.] | Decrease (Rattus norvegicus [11]) [%] | Decrease (Rattus norvegicus [12]) [%] | other results |
| --- | --- | --- | --- | --- | --- | --- | --- | --- | --- | --- | --- | --- |
| CN1CC[C@]23c4c5ccc(O)c4O[C@H]2C(=O)CC[C@@]3(O)[C@H]1C5 [OXYMORPHONE] | 17 | – | – | – | – | – | – | – | – | – | – | – |
| CN1CC[C@]23c4c5ccc(O)c4O[C@H]2/C(=N\N)CC[C@@]3(O)[C@H]1C5 [OXYMORPHAZONE] | 82 | 2 | 24 | 5 | 22 | 4560 | 4860 | 3750 | 5520 | – | – | – |
| C=CCN1CC[C@]23c4c5ccc(O)c4O[C@H]2C(=O)CC[C@@]3(O)[C@H]1C5 [NALOXONE] | 54 | – | – | – | – | – | – | – | – | – | – | – |
| N/N=C1/CC[C@@]2(O)[C@H]3Cc4ccc(O)c5c4[C@@]2(CCN3CC2CC2)[C@H]1O5 [NALTREXAZONE] | 0 | 39 | 61 | 39 | 62 | 2240 | 2980 | 1910 | 2200 | 64 | 62 | Decrease (Rattus norvegicus [9]): 38%; Decrease (Rattus norvegicus [10]): 40%; Binding activity (Rattus norvegicus [13]): 1550 c.p.m.; Binding activity (Rattus norvegicus [14]): 3480 c.p.m.; Binding activity (Rattus norvegicus [15]): 2570 c.p.m. |
| O=C1CC[C@@]2(O)[C@H]3Cc4ccc(O)c5c4[C@@]2(CCN3CC2CC2)[C@H]1O5 [NALTREXONE] | 67 | – | – | – | – | – | – | – | – | – | – | – |
| C=CCN1CC[C@]23c4c5ccc(O)c4O[C@H]2/C(=N\N)CC[C@@]3(O)[C@H]1C5 [NALOXAZONE] | 0 | – | 11 | – | – | – | – | 4400 | 4640 | 24 | 23 | Binding activity (Rattus norvegicus [16]): 3140 c.p.m. |
